# Patent US20010053796A1, “Delta-aminolevulinic acid for prevention and treatment of infection microorganisms and parasite” (priority 2000, published 2001)
# Assays:
# Edwardsiella tarda [1] = test: Prevention effect for artificial infection (abdominal injection of bacteria); type: in vivo, Bastardhalibut; conditions: for Mortality during Cultivation: dead of 20 fish
# Procedure: (§1) The water temperature was maintained at 20° C. (±2° C. ) throughout the experiment.
# (§2) As the same method of above Experiment 1, fishes of both control group and experiment group were prepared and artificially infected by direct abdominal injection of Edwardsiella tarda 10^5 CFU per 1 fish. Each experimental fish was moved to fish tanks for monitoring and monitored for mortality according to infection for 2 weeks and viability after 2 weeks.
# Streptococcus sp. [2] = test: as above; type: in vivo, Sebastes schlegeli; conditions: for Mortality during Cultivation: dead of 20 fish
# Procedure: (§3) The water temperature was maintained at 20° C. (±2° C. ) throughout the experiment. […]
# Bastardhalibut and Sebastes schlegeli were infected by Streptococcus sp. by abdominal injection with the same method of fish breeding, δ-aminolevulinic acid treatment and artificial infection carried out in Experiment 1 and 2. Each experimental fish was moved to fish tanks for monitoring and monitored for mortality according to infection for 2 weeks. […] The treated group, with δ-aminolevulinic acid by tank administration method and oral administration method, has shown viability of higher than 65%.
# Staphylococcus sp. [3] = test: as above; type: in vivo, Bastardhalibut; conditions: for Mortality during Cultivation: dead of 20 fish
# Procedure: as §3
# Bastardhalibut and Sebastes schlegeli were infected by Staphylococcus sp. by abdominal injection with the same method of fish breeding δ-aminolevulinic acid treatment and artificial infection carried out in Experiment 1 and 2. Each experimental fish was moved to fish tanks for monitoring and monitored for mortality according to infection for 2 weeks.
# Vibrio anguillarum [4] = test: as above; type: in vivo, Sebastes schlegeli; conditions: for Mortality during Cultivation: dead of 20 fish
# Procedure: as §1, §2
# Bastardhalibut and Sebastes schlegeli were infected by Vibrio anguillarum through abdominal injection with the same method of fish breeding; δ-aminolevulinic acid treatment and artificial infection carried out in Experiment 1 and 2.
# Vibrio anguillarum [5] = test: Treatment effect of infected fry by oral administration in feed; type: in vivo, Bastardhalibut; conditions: 50 fish
# Edwardsiella tarda [6] = test: as above; type: in vivo, Sebastes schlegeli; conditions: 50 fish, Bastardhalibut
# Procedure: (§4) In this example, fry of Bastardhalibut and Sebastes schlegeli (mean body weight 2 g), 50 per each breeding tank, were preliminary-bred for 1 week and stabilized. […] The artificial infection methods were carried out through the digestion method. Pathogenic organisms were applied into fish tanks and introduced into seawater for an hour, wherein the concentration of organisms adjusted to 10^4 CFU/mL. Treatment conditions are as follows; after artificial infection, infected fish were moved to fish tanks and kept in the infection period for 3 days. On the fourth day of infection, 0.1˜50 ppm of δ-aminolevulinic acid for feed were added. The fish were bred for 2 weeks after exchanging with clean seawater and the mortality of fish according to infection was monitored. In the control groups, after each bacteria were identically infected through digestion method, mortality of Bastardhalibut and Sebastes schlegeli according to bacteria infection was identified while breeding with marketing assorted feed without δ-aminolevulinic acid. As a result of this experiment, δ-aminolevulinic acid-treated groups have shown high viability in both Bastardhalibut (Table 20˜Table 23) and Sebastes schlegeli (Table 24˜Table 27).
# Pseudomonas sp. = test: as above; type: in vivo, Sebastes schlegeli; conditions: 50 fish, Bastardhalibut
# Procedure: as §4
# Staphylococcus epidermis = test: as above; type: in vivo, Sebastes schlegeli; conditions: 50 fish, Bastardhalibut
# Procedure: as §4
# Staphylococcus sp. [7] = test: as above; type: in vivo, Sebastes schlegeli; conditions: 50 fish, Bastardhalibut
# Procedure: as §4
# Streptococcus sp. [8] = test: as above; type: in vivo, Sebastes schlegeli; conditions: 50 fish, Bastardhalibut
# Procedure: as §4
# Vibrio anguillarum [9] = test: as above; type: in vivo, Sebastes schlegeli; conditions: 50 fish, Bastardhalibut
# Procedure: as §4
# Bastardhalibut = test: Breeding before Scutica artificial infection (mortality during cultivation); conditions: oral (100 ppm per feed 1 kg), 1˜3 weeks
# Source text: 20 flatfish of about 25 g were set into 2 groups and 1 control group and cultivated in circulatory filtering system. In group 1, they were cultivated for 1˜3 weeks, maintaining the concentration of δ-aminolevulinic acid at 0.01˜50 ppm by administering δ-aminolevulinic acid once every 3 days to the cultivating water. In group 2, they were cultivated for 1˜3 weeks by administering δ-aminolevulinic acid solution, which was nebulized at the concentration of 0.1˜100 ppm and for artificial assorted feed (EP, fish body weight 3%: 15 g) 1 kg, and dried. In group 1 and the non-treated group, artificial assorted feed on the market with the same amount of feed of group 2 was used without δ-aminolevulinic acid treatment. […] The water temperature was maintained at 20° C. (±2° C.) throughout the experiment.
# [10] = feed 0.1 ppm from 4th day of infection
# [11] = feed 1.0 ppm from 4th day of infection
# [12] = feed 50 ppm from 4th day of infection
# [13] = feed 10 ppm from 4th day of infection
smiles,measurement,setting,value
NCC(=O)CCC(=O)O [δ-aminolevulinic acid],Viability,"Edwardsiella tarda [1]; orally, 0.01 ppm in feed",75%
same,Mortality during Cultivation,"Edwardsiella tarda [1]; orally, 0.01 ppm in feed",5
same,Viability,"Edwardsiella tarda [1]; orally, 1.0 ppm in feed",70%
same,Mortality during Cultivation,"Edwardsiella tarda [1]; orally, 1.0 ppm in feed",6
same,Viability,"Edwardsiella tarda [1]; orally, 10 ppm in feed",85%
same,Mortality during Cultivation,"Edwardsiella tarda [1]; orally, 10 ppm in feed",3
same,Viability,"Edwardsiella tarda [1]; orally, 100 ppm in feed",95%
same,Mortality during Cultivation,"Edwardsiella tarda [1]; orally, 100 ppm in feed",1
same,Viability,"Edwardsiella tarda [1]; to fish tanks, 0.01 ppm",65%
same,Mortality during Cultivation,"Edwardsiella tarda [1]; to fish tanks, 0.01 ppm",7
same,Viability,"Edwardsiella tarda [1]; to fish tanks, 0.1 ppm",75%
same,Mortality during Cultivation,"Edwardsiella tarda [1]; to fish tanks, 0.1 ppm",5
same,Viability,"Edwardsiella tarda [1]; to fish tanks, 1.0 ppm",85%
same,Mortality during Cultivation,"Edwardsiella tarda [1]; to fish tanks, 1.0 ppm",3
same,Viability,"Edwardsiella tarda [1]; to fish tanks, 10 ppm",90%
same,Mortality during Cultivation,"Edwardsiella tarda [1]; to fish tanks, 10 ppm",2
same,Viability,"Streptococcus sp. [2]; orally, 0.1 ppm in feed",70%
same,Mortality during Cultivation,"Streptococcus sp. [2]; orally, 0.1 ppm in feed",6
same,Viability,"Streptococcus sp. [2]; orally, 1.0 ppm in feed",70%
same,Mortality during Cultivation,"Streptococcus sp. [2]; orally, 1.0 ppm in feed",6
same,Viability,"Streptococcus sp. [2]; orally, 10 ppm in feed",85%
same,Mortality during Cultivation,"Streptococcus sp. [2]; orally, 10 ppm in feed",3
same,Viability,"Streptococcus sp. [2]; orally, 100 ppm in feed",90%
same,Mortality during Cultivation,"Streptococcus sp. [2]; orally, 100 ppm in feed",2
same,Viability,"Streptococcus sp. [2]; to fish tanks, 0.01 ppm",60%
same,Mortality during Cultivation,"Streptococcus sp. [2]; to fish tanks, 0.01 ppm",8
same,Viability,"Streptococcus sp. [2]; to fish tanks, 0.1 ppm",65%
same,Mortality during Cultivation,"Streptococcus sp. [2]; to fish tanks, 0.1 ppm",7
same,Viability,"Streptococcus sp. [2]; to fish tanks, 1.0 ppm",85%
same,Mortality during Cultivation,"Streptococcus sp. [2]; to fish tanks, 1.0 ppm",3
same,Viability,"Streptococcus sp. [2]; to fish tanks, 10 ppm",80%
same,Mortality during Cultivation,"Streptococcus sp. [2]; to fish tanks, 10 ppm",4
same,Viability,"Staphylococcus sp. [3]; orally, 0.1 ppm in feed",55%
same,Mortality during Cultivation,"Staphylococcus sp. [3]; orally, 0.1 ppm in feed",9
same,Viability,"Staphylococcus sp. [3]; orally, 1.0 ppm in feed",65%
same,Mortality during Cultivation,"Staphylococcus sp. [3]; orally, 1.0 ppm in feed",7
same,Viability,"Staphylococcus sp. [3]; orally, 10 ppm in feed",95%
same,Mortality during Cultivation,"Staphylococcus sp. [3]; orally, 10 ppm in feed",1
same,Viability,"Staphylococcus sp. [3]; orally, 100 ppm in feed",90%
same,Mortality during Cultivation,"Staphylococcus sp. [3]; orally, 100 ppm in feed",2
same,Viability,"Staphylococcus sp. [3]; to fish tanks, 0.01 ppm",55%
same,Mortality during Cultivation,"Staphylococcus sp. [3]; to fish tanks, 0.01 ppm",9
same,Viability,"Staphylococcus sp. [3]; to fish tanks, 0.1 ppm",75%
same,Mortality during Cultivation,"Staphylococcus sp. [3]; to fish tanks, 0.1 ppm",5
same,Viability,"Staphylococcus sp. [3]; to fish tanks, 1.0 ppm",90%
same,Mortality during Cultivation,"Staphylococcus sp. [3]; to fish tanks, 1.0 ppm",2
same,Viability,"Staphylococcus sp. [3]; to fish tanks, 10 ppm",95%
same,Mortality during Cultivation,"Staphylococcus sp. [3]; to fish tanks, 10 ppm",1
same,Viability,"Vibrio anguillarum [4]; orally, 0.1 ppm in feed",60%
same,Mortality during Cultivation,"Vibrio anguillarum [4]; orally, 0.1 ppm in feed",8
same,Viability,"Vibrio anguillarum [4]; orally, 1.0 ppm in feed",65%
same,Mortality during Cultivation,"Vibrio anguillarum [4]; orally, 1.0 ppm in feed",7
same,Viability,"Vibrio anguillarum [4]; orally, 10 ppm in feed",80%
same,Mortality during Cultivation,"Vibrio anguillarum [4]; orally, 10 ppm in feed",4
same,Viability,"Vibrio anguillarum [4]; orally, 100 ppm in feed",90%
same,Mortality during Cultivation,"Vibrio anguillarum [4]; orally, 100 ppm in feed",2
same,Viability,"Vibrio anguillarum [4]; to fish tanks, 0.01 ppm",60%
same,Mortality during Cultivation,"Vibrio anguillarum [4]; to fish tanks, 0.01 ppm",8
same,Viability,"Vibrio anguillarum [4]; to fish tanks, 0.1 ppm",60%
same,Mortality during Cultivation,"Vibrio anguillarum [4]; to fish tanks, 0.1 ppm",8
same,Viability,"Vibrio anguillarum [4]; to fish tanks, 1.0 ppm",85%
same,Mortality during Cultivation,"Vibrio anguillarum [4]; to fish tanks, 1.0 ppm",1
same,Viability,"Vibrio anguillarum [4]; to fish tanks, 10 ppm",90%
same,Mortality during Cultivation,"Vibrio anguillarum [4]; to fish tanks, 10 ppm",2
same,Viability,Vibrio anguillarum [5]; [10],44%
same,Viability,Vibrio anguillarum [5]; [11],72%
same,Viability,Vibrio anguillarum [5]; [12],90%
same,Viability,Vibrio anguillarum [5]; feed 100 ppm from 4th day of infection,88%
same,Viability,Edwardsiella tarda [6]; [10],52%
same,Viability,Edwardsiella tarda [6]; [11],62%
same,Viability,Edwardsiella tarda [6]; [13],68%
same,Viability,Edwardsiella tarda [6]; [12],88%
same,Viability,Pseudomonas sp.; [10],52%
same,Viability,Pseudomonas sp.; [11],78%
same,Viability,Pseudomonas sp.; [13],86%
same,Viability,Pseudomonas sp.; [12],84%
same,Viability,Staphylococcus epidermis; [10],36%
same,Viability,Staphylococcus epidermis; [11],63%
same,Viability,Staphylococcus epidermis; [13],64%
same,Viability,Staphylococcus epidermis; [12],86%
same,Viability,Staphylococcus sp. [7]; [10],48%
same,Viability,Staphylococcus sp. [7]; [11],70%
same,Viability,Staphylococcus sp. [7]; [13],78%
same,Viability,Staphylococcus sp. [7]; [12],88%
same,Viability,Streptococcus sp. [8]; [10],44%
same,Viability,Streptococcus sp. [8]; [11],66%
same,Viability,Streptococcus sp. [8]; [13],72%
same,Viability,Streptococcus sp. [8]; [12],82%
same,Viability,Vibrio anguillarum [9]; [10],50%
same,Viability,Vibrio anguillarum [9]; [11],74%
same,Viability,Vibrio anguillarum [9]; [13],84%
same,Viability,Vibrio anguillarum [9]; [12],86%
same,Viability,Bastardhalibut,100%
same,Mortality during Cultivation,Bastardhalibut; dead of 20 fish,0
